Experimental data taken from patent publication US20140187771A1, “AMORPHOUS SOLID SALTS” (Gilead Sciences, Inc., priority 2011, published 2014).

How the values were obtained:
[1] = Glass transition temperature (Tg) by modulated differential scanning calorimetry (mDSC); assay type: physicochemical; settings: for Tg (° C.) First heating / Tg (° C.) Second heating: mDSC, precipitated salts of Compound 1; for Tg (° C.) First heating: first heating cycle; for Tg (° C.) Second heating: second heating cycle (intrinsic Tg in dry state); for Tg (° C.): spray dried salts (from acetone)
Procedure: Modulated differential scanning calorimetry (mDSC) was used to characterize salts of the invention. Solid samples were placed in hermetically sealed aluminum pan with a pinhole. Modulation amplitude of ±0.8° C. with a period of 60 sec was applied to the sample heated at 2° C./min under dried nitrogen purge using TA instruments (New Castle, Del., USA) model 1000.
Heat-cool-heat cycles were applied to allow for moisture evaporation during first heating cycle and to erase thermal history of the sample, which allowed for the determination of the intrinsic glass transition temperature (Tg) in dry state.

[2] = Hygroscopicity at room temperature (weight gain and visual phase transition after 24 hours at controlled RH); assay type: physicochemical
Procedure: Hygroscopicity of salts of invention were measured by placing 20-50 mg of the sample in an uncapped scintillation vial. The vial was stored at ambient temperature in a Pyrex brand desiccator (VWR, International, CT). […] The relative humidity was confirmed using a digital hygrometer pen (VWR International, CT). An empty scintillation vial was also placed in the desiccator as a control. […] Visual observation of phase transition was also noted.

[3] = 55% RH, room temperature, 24 hours
[4] = 55% RH, room temperature, 24 hours, visual observation
[5] = 75% RH, room temperature, 24 hours
[6] = 75% RH, room temperature, 24 hours, visual observation

Molecule	Tg (° C.) First heating [1] [°C]	Tg (° C.) Second heating [1] [°C]	% weight gain [2, 3] [%]	Phase transition [2, 4]	% weight gain [2, 5] [%]	Phase transition [2, 6]	Tg (° C.) [1] [°C]	Phase transition ([2]; spray dried salts, 55% RH)	Weight gain at 55% RH RH (%) ([2]; spray dried salts, 55% RH)	Phase transition ([2]; spray dried salts, 75% RH)	Weight gain at 75% (%) ([2]; spray dried salts, 75% RH)
CC(C)c1nc(CN(C)C(=O)N[C@@H](CCN2CCOCC2)C(=O)N[C@H](CC[C@H](Cc2ccccc2)NC(=O)OCc2cncs2)Cc2ccccc2)cs1.O=C(O)CCC(=O)O [succinate]	16	35	3.95	Yes	6.09	Yes	–	–	–	–	–
CC(C)c1nc(CN(C)C(=O)N[C@@H](CCN2CCOCC2)C(=O)N[C@H](CC[C@H](Cc2ccccc2)NC(=O)OCc2cncs2)Cc2ccccc2)cs1.CCS(=O)(=O)O	−0.23	37	8.78	Yes	16.2	Yes	–	–	–	–	–
tartarate	44	66	3.23	No	7.6	Partial	67	no	5.8	yes	6.3
dichloroacetate	–	34	3.36	Yes	7.3	Yes	–	–	–	–	–
fumarate	37	51	2.11	No	6.02	Yes	31	no	3.2	yes	6.0
CC(C)c1nc(CN(C)C(=O)N[C@@H](CCN2CCOCC2)C(=O)N[C@H](CC[C@H](Cc2ccccc2)NC(=O)OCc2cncs2)Cc2ccccc2)cs1.O=C(O)C(=O)O.O=C(O)C(=O)O [oxalate]	34	46	4.38	Partial	9.36	Yes	–	–	–	–	–
CC(C)c1nc(CN(C)C(=O)NC(CCN2CCOCC2)C(=O)NC(CCC(Cc2ccccc2)NC(=O)OCc2cncs2)Cc2ccccc2)cs1.O=C(O)c1ccc2ccccc2c1O (stereo not shown) [xinafoate]	49	51	0.29	No	1.97	No	42	no	2.6	no	3.3
CC(C)c1nc(CN(C)C(=O)N[C@@H](CCN2CCOCC2)C(=O)N[C@H](CC[C@H](Cc2ccccc2)NC(=O)OCc2cncs2)Cc2ccccc2)cs1.CC(O)C(=O)O [lactate]	2	17	–	–	5.76	Yes	–	–	–	–	–
O=S(=O)(O)O [sulfate]	71	71	–	Partial	–	Yes	–	–	–	–	–
O=C(O)CCC(=O)C(=O)O [ketoglutarate]	24	42	3.27	Yes	5.23	Yes	–	–	–	–	–
benzoate	14	23	1.99	Yes	3.63	Yes	–	–	–	–	–
CC(C)c1nc(CN(C)C(=O)N[C@@H](CCN2CCOCC2)C(=O)N[C@H](CC[C@H](Cc2ccccc2)NC(=O)OCc2cncs2)Cc2ccccc2)cs1.O=C(O)CC(=O)O [malonate]	14	36	3.43	Yes	6.18	Yes	–	–	–	–	–
CC(C)c1nc(CN(C)C(=O)N[C@@H](CCN2CCOCC2)C(=O)N[C@H](CC[C@H](Cc2ccccc2)NC(=O)OCc2cncs2)Cc2ccccc2)cs1.CC1(C)C2CCC1(CS(=O)(=O)O)C(=O)C2 [camphorosulfonate]	66	66	2.99	No	5.9	Yes	–	–	–	–	–
ascorbate	42	60	3.23	No	7.56	Yes	–	–	–	–	–
maleate	24	37	4.41	Yes	6.67	Yes	–	–	–	–	–
CC(C)c1nc(CN(C)C(=O)N[C@@H](CCN2CCOCC2)C(=O)N[C@H](CC[C@H](Cc2ccccc2)NC(=O)OCc2cncs2)Cc2ccccc2)cs1 [citrate]	59	60	3.17	No	6.5	Partial	–	–	–	–	–
tosylate	32	46	3.11	Partial	6.5	Yes	–	–	–	–	–
CC(C)c1nc(CN(C)C(=O)N[C@@H](CCN2CCOCC2)C(=O)N[C@H](CC[C@H](Cc2ccccc2)NC(=O)OCc2cncs2)Cc2ccccc2)cs1.Cl [hydrochloride]	34	59	4.32	Partial	6.92	Yes	35	partial	7.8	yes	9.4
CC(C)c1nc(CN(C)C(=O)N[C@@H](CCN2CCOCC2)C(=O)N[C@H](CC[C@H](Cc2ccccc2)NC(=O)OCc2cncs2)Cc2ccccc2)cs1.O=C(O)c1cc(O)ccc1O [gentisate]	62	62	2.17	No	5.2	No	61	no	3.1	partial	5.6
CC(C)c1nc(CN(C)C(=O)N[C@@H](CCN2CCOCC2)C(=O)N[C@H](CC[C@H](Cc2ccccc2)NC(=O)OCc2cncs2)Cc2ccccc2)cs1.O=P(O)(O)O [phosphate]	66	69	4.52	No	7.9	Partial	92	no	4.7	yes	8.0
